From ChEMBL document CHEMBL1132606, “Use of a pharmacophore model for the design of EGFR tyrosine kinase inhibitors: isoflavones and 3-phenyl-4(1H)-quinolones” (J Med Chem, 1999) come the findings set out here.

In assay [1] the target is T1, Epidermal growth factor receptor (Homo sapiens, UniProt P00533). The assay can be described thus: Inhibition of Epidermal growth factor receptor.
Assay [2] has as its target T1, Epidermal growth factor receptor. Kind of assay: Inhibition of Epidermal growth factor receptor-dependent phosphorylation.
Assay [3] concerns the target Protein kinase C alpha type (Homo sapiens, UniProt P17252). The assay can be described thus: Inhibition of Protein kinase C alpha.
Assay [4] addresses Platelet-derived growth factor receptor (Homo sapiens, UniProt P09619+P16234). The assay can be described thus: Inhibition of Platelet-derived growth factor receptor-dependent phosphorylation. In kind it is protein-complex assay.
Assay [5] addresses Proto-oncogene tyrosine-protein kinase Src (Homo sapiens, UniProt P12931). Kind of assay: Inhibition of p60 c-Src tyrosine kinase.
Assay [6] deals with Tyrosine-protein kinase ABL (Homo sapiens, UniProt P00519+P42684). Kind of assay: Inhibition of v-Abl tyrosine kinase. In kind it is protein assay.

T1 sequence (P00533 whole entry): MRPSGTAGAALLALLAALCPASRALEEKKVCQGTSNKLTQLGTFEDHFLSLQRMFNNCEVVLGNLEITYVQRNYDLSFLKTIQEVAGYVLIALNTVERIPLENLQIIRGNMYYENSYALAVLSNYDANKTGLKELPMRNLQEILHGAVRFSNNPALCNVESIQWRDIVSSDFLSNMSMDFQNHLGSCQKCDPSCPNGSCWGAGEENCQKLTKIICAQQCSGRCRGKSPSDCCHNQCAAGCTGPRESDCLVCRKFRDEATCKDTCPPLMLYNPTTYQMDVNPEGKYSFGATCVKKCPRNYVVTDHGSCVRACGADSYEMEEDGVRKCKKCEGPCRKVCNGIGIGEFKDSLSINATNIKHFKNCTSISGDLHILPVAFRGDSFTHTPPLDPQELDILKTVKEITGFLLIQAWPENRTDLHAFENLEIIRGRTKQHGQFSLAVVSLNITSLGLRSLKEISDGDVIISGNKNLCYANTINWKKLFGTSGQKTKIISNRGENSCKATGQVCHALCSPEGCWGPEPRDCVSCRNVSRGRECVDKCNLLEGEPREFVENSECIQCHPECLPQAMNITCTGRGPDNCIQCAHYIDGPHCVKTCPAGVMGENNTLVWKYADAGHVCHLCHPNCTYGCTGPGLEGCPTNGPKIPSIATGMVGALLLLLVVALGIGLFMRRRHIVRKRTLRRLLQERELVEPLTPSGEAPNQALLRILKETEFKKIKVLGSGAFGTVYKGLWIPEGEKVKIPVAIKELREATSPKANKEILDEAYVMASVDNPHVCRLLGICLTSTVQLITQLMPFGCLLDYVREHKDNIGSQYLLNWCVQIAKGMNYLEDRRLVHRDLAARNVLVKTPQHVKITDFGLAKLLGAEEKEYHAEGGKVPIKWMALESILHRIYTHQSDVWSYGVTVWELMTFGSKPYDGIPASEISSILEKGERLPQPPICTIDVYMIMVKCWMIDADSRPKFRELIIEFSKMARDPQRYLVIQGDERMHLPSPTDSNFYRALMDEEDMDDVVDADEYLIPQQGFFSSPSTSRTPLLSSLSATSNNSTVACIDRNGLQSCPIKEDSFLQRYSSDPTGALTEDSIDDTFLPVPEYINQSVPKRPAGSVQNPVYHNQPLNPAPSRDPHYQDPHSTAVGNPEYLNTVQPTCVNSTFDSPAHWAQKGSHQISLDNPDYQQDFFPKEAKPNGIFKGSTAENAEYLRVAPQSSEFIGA
Proto-oncogene tyrosine-protein kinase Src, sequence (P12931 2-536 limits assumed): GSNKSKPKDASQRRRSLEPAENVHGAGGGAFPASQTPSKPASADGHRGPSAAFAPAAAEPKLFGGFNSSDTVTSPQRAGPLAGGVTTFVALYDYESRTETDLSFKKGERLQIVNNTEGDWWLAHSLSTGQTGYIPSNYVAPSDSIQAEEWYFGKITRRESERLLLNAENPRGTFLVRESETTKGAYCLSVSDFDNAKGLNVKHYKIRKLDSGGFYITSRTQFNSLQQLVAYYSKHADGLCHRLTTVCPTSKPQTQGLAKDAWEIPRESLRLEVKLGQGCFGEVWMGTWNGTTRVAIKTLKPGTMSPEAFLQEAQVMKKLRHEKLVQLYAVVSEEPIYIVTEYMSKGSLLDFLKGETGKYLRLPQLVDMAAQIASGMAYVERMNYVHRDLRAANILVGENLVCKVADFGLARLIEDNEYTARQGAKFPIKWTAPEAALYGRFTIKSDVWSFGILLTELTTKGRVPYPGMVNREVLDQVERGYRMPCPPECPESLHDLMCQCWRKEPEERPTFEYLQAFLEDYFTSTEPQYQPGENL

For the molecule `Oc1cc(O)c2c(O)c(-c3cccc(Cl)c3)cnc2c1`, the IC50 (commonly the point on the concentration scale where inhibition reaches its midpoint) in assay [1] was 0.008 µM; in assay [2], 2 µM; in assay [3], above 100 µM; in assay [4], above 10 µM; in assay [5], 8 µM; in assay [6] it was above 10 µM.

In the case of `COc1cc(O)c2c(O)c(-c3cccc(Cl)c3)cnc2c1`, the IC50 was 0.038 µM in assay [1]; 6 µM in assay [2]; above 100 µM in assay [3]; above 10 µM in assay [4]; above 100 µM in assay [5]; above 100 µM in assay [6].

For `COc1cc(O)c2c(=O)c(-c3cccc(Cl)c3)coc2c1`, the IC50 in assay [1] is 1.27 µM; in assay [2] it was above 100 µM; in assay [3], above 100 µM; in assay [4] it was above 10 µM; in assay [5], above 100 µM; in assay [6] it was above 100 µM.

`O=c1c(-c2cccc(Cl)c2)coc2cc(O)ccc12`: half-maximal inhibition in assay [1] (IC50) was put at 58.8 µM.

Turning to `Oc1c(-c2cccc(Cl)c2)cnc2ccccc12`, the IC50 in assay [1] is above 100 µM.

Turning to `COc1cc(O)c2c(=O)c(-c3cccc(Cl)c3)cn(CCc3ccccc3)c2c1`, the values for the IC50 in assay [1], in assay [2] and in assay [4] were 4 µM, 1.5 µM and above 10 µM, respectively.

For `COc1cc(O)c2c(=O)c(-c3cccc(Cl)c3)cn(C)c2c1`, the IC50 in assay [1] is 0.17 µM; in assay [2], 3 µM; in assay [3], above 100 µM; in assay [4], above 10 µM; in assay [5], above 10 µM; in assay [6], above 10 µM.

For `O=c1c(-c2cccc(Cl)c2)coc2cc(O)cc(O)c12`, the half-maximal inhibitory concentration (IC50) is 0.095 µM in assay [1]; 12 µM in assay [2]; above 100 µM in assay [3]; above 10 µM in assay [4]; above 100 µM in assay [5]; 20 µM in assay [6].

Turning to `COC(=O)Cn1cc(-c2cccc(Cl)c2)c(=O)c2c(O)cc(OC)cc21`, the half-maximal inhibitory concentration (IC50) in assay [3] is above 100 µM; in assay [4], above 10 µM; in assay [5] it was above 10 µM; in assay [6], above 10 µM.

In the case of `COc1cc(OC)c2c(=O)c(-c3cccc(Cl)c3)coc2c1`, the 50% inhibitory concentration (IC50) in assay [1] was 500 µM; in assay [2], above 100 µM; in assay [4] it was above 10 µM.

Regarding `O=c1c(-c2ccc(O)cc2)coc2cc(O)cc(O)c12` [GENISTEIN], the results for the IC50 in assay [3], in assay [5] and in assay [6] were above 100 µM, above 10 µM and above 10 µM, respectively.

In the case of `COc1cc2ncnc(Nc3cccc(Cl)c3)c2cc1OC` [TYRPHOSTIN AG-1478], the 50% inhibitory concentration (IC50) is above 100 µM in assay [3], above 10 µM in assay [4] and 2.7 µM in assay [5].
